Assay results reported in patent US12234271B2 (Synthorx, Inc., priority 2019, dated 2025).

Key:
[1] = cited from earlier work
Treg cells = test: pSTAT5 signaling in human LRS-derived PBMC samples, Treg cells (flow cytometry); format: cell-based; settings: for Fold increase in Treg EC50 vs native IL-2: compared to native IL-2 run in each individual experiment; for Treg cells, dose response EC50 for pSTAT5 signaling: human LRS samples, from MFI plots; for CD8+/Treg ratio: ratio of pSTAT5 EC50, human LRS samples
Procedure: (§1) Conjugates of Table 3 were synthesized by modification of SEQ ID NO. 1.
(§2) These studies were performed at PrimityBio LLC (Fremont, CA).

CTLL-2 = CTLL-2 proliferation; format: cell-based; settings: mouse CTLL-2
Excerpt: FIG. 4A-FIG. 4B show the dose response curves for pSTAT5 signaling in human LRS primary cell (FIG. 4A) and proliferation response in mouse CTLL-2 populations (FIG. 4B).

NK cells = test: pSTAT5 signaling in human LRS-derived PBMC samples, NK cells (flow cytometry); format: cell-based; settings: from MFI plots
Procedure: as §1, §2

CD8+ Tcells = test: pSTAT5 signaling in human LRS-derived PBMC samples, CD8+ T cells (flow cytometry); format: cell-based; settings: from MFI plots
Procedure: as §1, §2

[2] = tested on: white blood cell count (WBC), lymphocyte count; test: Hematology after single subcutaneous dose in Cynomolgus monkeys; format: in vivo, Cynomolgus monkey
Excerpt: Each of the conjugates described below, except H16_30 kDa and H16_50 kDa, had SEQ ID NO: 4 in which the indicated amino acid position is substituted with the structure of Formula (II), Formula (III), or a mixture of Formula (II) and (III), and they contain a PEG chain of the indicated size. For example, the variant labeled “L19_30 kDa” has SEQ ID NO: 4 in which the amino acid at position L19 is replaced by the structure of Formula (II), Formula (III), or a mixture of Formula (II) and (III), and contains a 30 kDa, linear mPEG group. For the H16_30 kDa and H16_50 kDa variants, the compounds had SEQ ID NO: 4 in which the indicated amino acid position is substituted with the structure of Formula (IV), Formula (V), or a mixture of Formula (IV) and […] a linear, mPEG group having a molecular weight of 30 kDa or 50 kDa, respectively.
Blood samples were taken from each animal at the following time points: Samples for hematology: Day −1, Day 1 (Predose), 3, 6, 10, 15 and 22. Samples for pharmacokinetics and pharmacodynamics: (Predose), 0.5, 1, 2, 4, 8, 24, 36, 48, 72, 96, 120, 144, 168, and 240, 360, 528 (Day 22) hours post-dose. Cytokine sample collection and analysis: Day −1, and Day 1 (Predose), 8, 24, 72, 120 and 168, 360, and 528 (Day 22) hours post-dose.

[3] = target: T1, IL-2 receptor alpha beta gamma (Homo sapiens, UniProt P01589+P14784+P31785); test: PathHunter IL-2 Cytokine Receptor agonist assay, alpha beta gamma; format: cell-based; settings: U2OS PathHunter cells with IL-2Ralpha; mass of IL-2 polypeptide only, without mPEG or linker
T1 construct: host or cells: U2OS (PathHunter)
T1 sequence (P01589 22-272): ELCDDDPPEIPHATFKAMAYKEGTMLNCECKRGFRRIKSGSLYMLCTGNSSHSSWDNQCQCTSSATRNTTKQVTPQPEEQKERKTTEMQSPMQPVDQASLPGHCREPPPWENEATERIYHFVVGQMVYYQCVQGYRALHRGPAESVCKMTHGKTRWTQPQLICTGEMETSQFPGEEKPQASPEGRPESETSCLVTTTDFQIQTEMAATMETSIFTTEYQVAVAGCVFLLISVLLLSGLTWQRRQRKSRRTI
T1 sequence (P14784 27-551): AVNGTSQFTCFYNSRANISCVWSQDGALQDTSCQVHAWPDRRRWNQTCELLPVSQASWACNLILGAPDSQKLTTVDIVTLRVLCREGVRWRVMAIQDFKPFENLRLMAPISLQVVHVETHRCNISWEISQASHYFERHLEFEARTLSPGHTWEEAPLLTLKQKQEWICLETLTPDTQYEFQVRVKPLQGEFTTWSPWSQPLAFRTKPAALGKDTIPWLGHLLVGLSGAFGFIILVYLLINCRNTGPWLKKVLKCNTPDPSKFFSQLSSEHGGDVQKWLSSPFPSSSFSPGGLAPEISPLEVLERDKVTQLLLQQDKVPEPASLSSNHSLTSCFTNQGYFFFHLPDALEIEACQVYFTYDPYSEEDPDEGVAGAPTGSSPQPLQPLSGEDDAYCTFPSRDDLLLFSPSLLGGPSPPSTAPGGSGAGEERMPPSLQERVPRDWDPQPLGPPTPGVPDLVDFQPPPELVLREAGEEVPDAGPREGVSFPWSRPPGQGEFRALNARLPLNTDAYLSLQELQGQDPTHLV
T1 sequence (P31785 23-369): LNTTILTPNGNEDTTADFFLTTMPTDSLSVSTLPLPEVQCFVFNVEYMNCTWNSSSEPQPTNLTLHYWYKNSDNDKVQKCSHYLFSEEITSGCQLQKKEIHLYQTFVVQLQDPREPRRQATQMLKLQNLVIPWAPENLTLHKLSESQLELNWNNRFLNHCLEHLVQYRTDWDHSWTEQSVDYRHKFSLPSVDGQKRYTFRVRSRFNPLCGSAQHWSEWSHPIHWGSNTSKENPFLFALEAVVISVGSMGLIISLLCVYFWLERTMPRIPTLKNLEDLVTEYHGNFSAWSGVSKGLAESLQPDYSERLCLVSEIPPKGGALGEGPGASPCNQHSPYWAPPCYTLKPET
Procedure: (§3) For example, the compounds labelled “D20_30” in this example is the compound having SEQ ID NO: 4 in which the structure of Formula (II), Formula (III), or a mixture of Formula (II) and (III) was substituted at the D20 residue (SEQ ID NO: 67) with a PEG group having a molecular weight of 30 kDa. Similarly, the following compounds were tested in this Example:
(§4) A second cell line was engineered to express the IL-2Ralpha subunit.
(§5) PathHunter cell lines were expanded from freezer stocks according to standard procedures. Cells were seeded in a total volume of 20 μL into white walled, 384-well microplates and incubated for the appropriate time prior to testing. […] Intermediate dilution of sample stocks was performed to generate 5× sample in assay buffer. About 5 μL of 5× sample was added to cells and incubated at 37° C. for a period of from 6 hours to 16 hours depending on the assay. Vehicle concentration was 1%. […] For some assays, activity was detected using a high sensitivity detection reagent (PathHunter Flash Kit) to improve assay performance. […] Microplates were read following signal generation with a PerkinElmer Envision instrument for chemiluminescent signal detection.
(§6) Compound activity was analyzed using CBIS data analysis suite software (ChemInnovation, CA).

IL-2 receptor beta gamma = target: T2, IL-2 receptor beta gamma (Homo sapiens, UniProt P14784+P31785); test: PathHunter IL-2 Cytokine Receptor agonist assay, beta gamma; format: cell-based; settings: U2OS PathHunter cells IL-2Rbeta/gamma; mass of IL-2 polypeptide only, without mPEG or linker
T2 construct: host or cells: U2OS (PathHunter)
T2 sequence (P14784 27-551): T1 sequence (P14784 27-551)
T2 sequence (P31785 23-369): T1 sequence (P31785 23-369)
Procedure: as §3, §4, §5, §6

Fold increase in Treg EC50 vs native IL-2 (Treg cells)	Treg cells, dose response EC50 for pSTAT5 signaling (Treg cells) [pg/ml]	NK cells, dose response EC50 for pSTAT5 signaling (NK cells) [pg/ml]	CD8+ Tcells, dose response EC50 for pSTAT5 signaling (CD8+ Tcells) [pg/ml]	Substance	CD8+/Treg ratio (Treg cells)	CTLL-2 proliferation EC50 (CTLL-2) [ng/mL]	further results
148	11082	2312847	15025734	N88R: IL-2 variant of Table 3 labelled N88R, no PEG size given [reference compound]	1356	0.363	–
3	142	20537	102255	V91K: IL-2 variant of Table 3 labelled V91K, no PEG size given [reference compound]	720	0.0995	–

Second part, the substance before the results:

Substance	Fold increase in Treg EC50 vs native IL-2 (Treg cells)	Treg cells, dose response EC50 for pSTAT5 signaling (Treg cells) [pg/ml]	NK cells, dose response EC50 for pSTAT5 signaling (NK cells) [pg/ml]	CD8+ Tcells, dose response EC50 for pSTAT5 signaling (CD8+ Tcells) [pg/ml]	CD8+/Treg ratio (Treg cells)	CTLL-2 proliferation EC50 (CTLL-2) [ng/mL]	further results
human transferrin: 679 amino acid polypeptide that is about 80 kDa in size	–	–	–	–	–	–	half-life [1]: 170 to 288 h
L19_30kDa: SEQ ID NO: 4 with Formula (II), (III) or mixture at L19 (SEQ ID NO: 66), 30 kDa linear mPEG	–	–	–	–	–	–	Date at the peak of lymphocytes ([2]; 0.03 mg/kg single subcutaneous dose): 6 days post; Date at the peak of lymphocytes ([2]; 0.16 mg/kg single subcutaneous dose): 6 days post
H16_30kDa: SEQ ID NO: 4 with Formula (II), (III) or mixture at H16 (SEQ ID NO: 65), linear mPEG 30 kDa	–	–	–	–	–	–	Alpha beta gamma EC50 [3]: 3.3 ng/mL; Beta gamma EC50 (IL-2 receptor beta gamma): 5742 ng/mL
N88_30kDa: SEQ ID NO: 4 with Formula (II), (III) or mixture at N88 (SEQ ID NO: 70), linear mPEG 30 kDa	–	–	–	–	–	–	Date at the peak of lymphocytes ([2]; 0.37 mg/kg single subcutaneous dose): 6 days post
